Experimental data reported in patent US20230235378A1, “LZHEIMER'S DISEASE-SPECIFIC ALTERATIONS OF PROTEIN KINASE C EPSILON (PKC-EPSILON PROTEIN LEVELS” (WEST VIRGINIA UNIVERSITY BOARD OF GOVERNORS ON BEHALF OF …, priority 2010, published 2023).

Columns and labels:
purified PKC = target: T1, purified PKC (Homo sapiens, UniProt Q02156); assay: PKC isozyme specificity: purified PKC preincubated with compound, activity measured radiometrically; assay type: biochemical; settings: 10 μM; data not shown
T1 construct: purchased Calbiochem
T1 sequence (Q02156 1-737): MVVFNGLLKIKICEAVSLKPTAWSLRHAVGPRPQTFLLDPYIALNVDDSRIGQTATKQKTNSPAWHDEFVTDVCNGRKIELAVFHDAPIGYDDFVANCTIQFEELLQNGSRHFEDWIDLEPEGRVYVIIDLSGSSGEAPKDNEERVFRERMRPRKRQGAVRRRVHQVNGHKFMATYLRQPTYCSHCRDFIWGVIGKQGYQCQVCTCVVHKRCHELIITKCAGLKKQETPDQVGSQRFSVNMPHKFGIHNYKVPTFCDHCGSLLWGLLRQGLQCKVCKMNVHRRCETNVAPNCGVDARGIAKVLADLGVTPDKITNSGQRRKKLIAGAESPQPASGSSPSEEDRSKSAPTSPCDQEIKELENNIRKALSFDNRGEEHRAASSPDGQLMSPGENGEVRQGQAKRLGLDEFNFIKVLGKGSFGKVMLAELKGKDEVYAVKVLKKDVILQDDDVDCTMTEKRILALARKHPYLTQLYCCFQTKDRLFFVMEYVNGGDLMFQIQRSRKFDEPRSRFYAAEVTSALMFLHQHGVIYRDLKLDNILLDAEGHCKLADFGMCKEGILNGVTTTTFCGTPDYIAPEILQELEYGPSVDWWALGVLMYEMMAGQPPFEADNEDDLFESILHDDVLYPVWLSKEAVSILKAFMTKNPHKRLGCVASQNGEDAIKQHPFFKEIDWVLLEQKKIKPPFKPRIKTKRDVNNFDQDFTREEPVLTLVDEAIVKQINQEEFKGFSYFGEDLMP
Protocol: (§1) Protein Kinase C Assay. Rat hippocampal cells were cultured and scraped in 0.2 ml homogenization buffer (20 mM Tris-HCl, pH 7.4, 50 mM NaF, 1 μg/ml leupeptin, and 0.1 mM PMSF) and homogenized by sonication in a Marsonix micro-probe sonicator (5 sec, 10 W). To measure PKC, 10 μl of cell homogenate or purified PKC isozyme (purchased from Calbiochem) was incubated for 15 min at 37° C. in the presence of 10 μM histones, 4.89 mM CaCl2, 1.2 μg/μl phosphatidyl-L-serine, 0.18 μg/μl 1,2-dioctanoyl-sn-glycerol, 10 mM MgCl2, 20 mM HEPES (pH 7.4), 0.8 mM EDTA, 4 mM EGTA, 4% glycerol, 8 μg/ml aprotinin, 8 μg/ml leupeptin, and 2 mM benzamidine. 0.5 μCi [γ-32P]ATP was added and 32P-phosphoprotein formation was measured by adsorption onto phosphocellulose as described previously. Nelson and Alkon, J. Neurochemistry. 1995; 65: 2350-57. For measurements of activation by BR-101 (DCP-LA) and similar compounds, PKC activity was measured in the absence of diacylglycerol and phosphatidylserine, as described by Kanno et al., and PKC δ, ε, η, and were measured in the absence of added EGTA and CaCl2, as described by Kanno et al., J. Lipid Res. 2006; 47: 1146-50. Low concentrations of Ca2+ are used because high Ca2+ interacts with the PKC phosphatidylserine binding site and prevents activation. For measurements of bryostatin activation, 1,2-diacylglycerol was omitted unless otherwise stated.
(§2) To determine their PKC isozyme specificity, the new compounds were preincubated with purified PKC for five minutes and the PKC activity was measured radiometrically.

other PKC isoforms = assay: PKC isozyme specificity: other PKC isoforms; assay type: biochemical; settings: 10 μM; data not shown
Protocol: as §1, with “Low concentrations of Ca2+ are used because high Ca2+ interacts with the PKC phosphatidylserine binding site and prevents activation. For measurements of bryostatin activation, 1,2-diacylglycerol was omitted unless otherwise stated.” left out
as §2

PKCδ = target: T2, PKCδ (Homo sapiens, UniProt Q05655); assay: PKC isozyme specificity: PKCδ; assay type: biochemical; settings: about 1-100 μM; data not shown
T2 construct: purchased Calbiochem
Protocol: as §1, with “Low concentrations of Ca2+ are used because high Ca2+ interacts with the PKC phosphatidylserine binding site and prevents activation. For measurements of bryostatin activation, 1,2-diacylglycerol was omitted unless otherwise stated.” left out
as §2

PKC = assay: Sustained PKC activation in primary neurons; assay type: cell-based, rat; settings: sustained activation only observed in primary neurons
Protocol: Cell Culture. Rat hippocampal H19-7/IGF-IR cells (ATCC, Manassas, Va.) were plated onto poly-L-lysine coated plates and grown at 35° C. in DMEM/10% FCS for several days until about 50% coverage was obtained. The cells were then induced to differentiate into a neuronal phenotype by replacing the medium with 5 ml N2 medium containing 10 ng/ml basic fibroblast growth factor at 39° C. and grown in T-75 flasks at 37° C. Human SH-SY5Y neuroblastoma cells (ATCC) were cultured in 45% F 12K/45% MEM/10% FCS. Mouse N2A neuroblastoma cells were cultured in DMEM/10% FCS without glutamine. Rat hippocampal neurons from 18-day-old embryonic
Sprague Dawley rat brains were plated on 12- or 96-well plates coated with poly-D-lysine (Sigma-Aldrich, St. Louis, Mo.) in B-27 neurobasal medium containing 0.5 mM glutamine and 25 μM glutamate (Invitrogen, Carlsbad, Calif.) and cultured for three days in the medium without glutamate. […]
Protein Kinase C Assay. […] 0.5 μCi [γ-32P]ATP was added and 32P-phosphoprotein formation was measured by adsorption onto phosphocellulose as described previously. […] For measurements of activation by BR-101 (DCP-LA) and similar compounds, PKC activity was measured in the absence of diacylglycerol and phosphatidylserine, as described by Kanno et al., and PKC δ, ε, η, and were measured in the absence of added EGTA and CaCl2, as described by Kanno et al., J. Lipid Res. 2006; 47: 1146-50. […]

[1] = Cell viability assay (alamar Blue and CyQuant staining); assay type: cell-based
Protocol: Aß Measurement and Cell Viability Assay. Aß was measured using an Aß 1-42 human fluorimetric ELISA kit (Invitrogen) according to the manufacturer's instructions. Results were measured in a Biotek Synergy HT microplate reader. AlamarBlue and CyQuant NF (Invitrogen) according to the manufacturer's instructions.

TACE = TACE assay in cell homogenates of neuronal cells; assay type: cell-based; settings: human SH-SY5Y, N2a mouse neuroblastoma cells, primary neurons from rat hippocampus
Protocol: TACE Assay. TACE was measured by incubating 5 μl cell homogenate, 3 μl buffer (50 mM Tris-HCl 7.4 plus 25 mM NaCl plus 4% glycerol), and 1 μl of 100 μM TACE substrate IV (Aβz-LAQAVRSSSR-DPa) (Calbiochem) for 20 min at 37° in 1.5-ml polypropylene centrifuge tubes (Jin et al., Anal. Biochem. 2002; 302: 269-75). The reaction was stopped by cooling to 4° C. The samples were diluted to 1 ml and the fluorescence was rapidly measured (ex=320 nm, em=420 nm) in a Spex Fluorolog 2 spectrofluorometer.
Buxbaum et al., J. Biol. Chem. 1998; 273: 27765-67; Etcheberrigaray et al., Proc. Natl. Acad. Sci. USA. 2006: 103:8215-20. However, many of these earlier studies were carried out in fibroblasts and other non-neuronal cell types, which appear to respond differently to PKC activators than neurons.

T2 sequence (Q05655 whole entry): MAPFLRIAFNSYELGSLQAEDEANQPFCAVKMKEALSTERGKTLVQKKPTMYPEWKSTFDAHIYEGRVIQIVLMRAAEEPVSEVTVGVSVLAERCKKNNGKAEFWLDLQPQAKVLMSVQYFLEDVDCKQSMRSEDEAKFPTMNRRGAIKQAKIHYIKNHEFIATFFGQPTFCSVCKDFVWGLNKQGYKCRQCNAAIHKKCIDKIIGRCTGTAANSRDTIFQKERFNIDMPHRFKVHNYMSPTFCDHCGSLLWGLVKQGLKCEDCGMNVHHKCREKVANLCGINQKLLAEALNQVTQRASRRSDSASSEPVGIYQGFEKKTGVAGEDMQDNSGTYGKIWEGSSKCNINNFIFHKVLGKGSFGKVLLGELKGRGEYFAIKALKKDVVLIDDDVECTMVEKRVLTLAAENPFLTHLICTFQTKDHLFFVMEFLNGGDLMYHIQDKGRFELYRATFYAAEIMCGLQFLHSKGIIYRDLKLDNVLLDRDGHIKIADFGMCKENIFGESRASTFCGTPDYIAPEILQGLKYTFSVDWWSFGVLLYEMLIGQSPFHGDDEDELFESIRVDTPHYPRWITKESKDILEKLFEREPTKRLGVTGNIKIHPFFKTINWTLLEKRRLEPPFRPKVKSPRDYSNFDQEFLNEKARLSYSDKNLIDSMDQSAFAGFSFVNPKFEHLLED

CCCCCC1CC1CC1CC1CCCCCCCC(=O)O (stereo not drawn) [BR-101, 8-[2-(2-pentyl-cyclopropylmethyl)-cyclopropyl]-octanoic acid]
activation of PKC (purified PKC): effective activator | effects on the other PKC isoforms (other PKC isoforms): relatively small effects | effect on PKCδ at higher concentrations (PKCδ): partially inhibited | duration of PKC elevation (PKC): remained elevated for at least four hours | effect on cell survival or proliferation [1]: no effect | change in TACE activity (TACE): only produced small increases
